We go through three compounds from patent US11965041B2, “N-methylated cyclic peptides and their prodrugs” (TECHNISCHE UNIVERSITAET MUENCHEN, priority 2017, dated 2024).

Numbered stars: 1 amine (or outer) side, 2 acyl side, 3 side chain; on linkers, the order of the positions; unused ones are H or OH. Square brackets hold non-standard residues; d marks the D form. Peptide text beside a SMILES is read from it. X1 = CCCCCCOC(=O)N=C(NCCC[C@@H](N[*:1])C(=O)[*:2])NC(=O)OCCCCCC; NMeV = CN[C@H](C(=O)O)C(C)C; dNMeA = CN[C@H](C)C(=O)O

Broadly, the AUC is concentration integrated over time. A higher AUC goes with more exposure. One may read the Cmax as the maximum level reached in the sampled fluid or tissue. As a reminder, the Papp A→B is the apparent permeability from the apical to the basolateral side of a cell layer. The logD is the decadic logarithm of the distribution of all forms, ionised or not, between an organic phase and buffer at a given pH. High values mean higher lipophilicity, low ones lower lipophilicity.

Series [1] is described as follows: Pharmacokinetic study in rats after oral administration. Format: in vivo, Wistar rats. As to conditions: rat. As for the experimental part:
In Vivo Studies. Male Wistar rats (Harlan, Israel), 275-300 g in weight, were used for all surgical procedures. Animals were anesthetized for the period of surgery by intraperitoneal injection of 1 mL/kg of ketamine/xylazine solution (9:1), placed on a heated surface, and maintained at 37° C. (Harvard Apparatus Inc., Holliston, MA). An indwelling cannula was placed in the right jugular vein of each animal for systemic blood sampling, by a method described before. The cannula was tunneled beneath the skin and exteriorized at the dorsal part of the neck. After completion of the surgical procedure, the animals were transferred to cages to recover overnight (12-18 h). During this recovery period, food but not water was deprived. Throughout the experiment, free access to food was available 4 h post oral administration. Animals were randomly assigned to the different experimental groups. […] Dispersed 12P SNEDDS (5 mg/kg) was administered to the animals by oral gavage (n=3). Systemic blood samples (0.35 mL) were taken at 5 min predose, 20, 40, 60, 90, 180, 240, and 360 min postdose. To prevent dehydration, equal volumes of physiological solution were administered to the rats following each withdrawal of blood sample. Plasma was separated by centrifugation (5322 g, 10 min) and stored at −20° C. pending analysis. In the 12P pharmacokinetic study, the parent peptide, 12, was analytically determined.
Pharmacokinetic Analysis. The area under the plasma concentration-time curve (AUC) was calculated by using the trapezoidal rule with extrapolation to infinity by dividing the last measured concentration by the elimination rate constant (kel). The elimination rate constant values were determined by a linear regression analysis using the last points on the logarithmic plot of the plasma concentration versus the time curve. Pharmacokinetic parameters, such Tmax, Cmax, clearance (CL), volume of distribution (V), and bioavailability, were calculated using noncompartmental analysis.
Analytical Methods. Plasma or BBMV samples were spiked with metoprolol (1.5 μg/mL) as an internal standard. ACN was added to each sample (2:1) and vortex-mixed for 1 min. The samples were then centrifuged (14 635 g, 10 min), and the supernatant was transferred to fresh glass tubes and evaporated to dryness (Vacuum Evaporation System, Labconco, Kansas City, MO, USA). Then, the glass tubes were reconstituted in 80 μL of mobile phase and centrifuged a second time (14 635 g, 10 min). The amount of the compounds was determined using an HPLC-MS Waters 2695 Separation Module, equipped with a Micromass ZQ detector. The resulting solution was injected (10 μL) into the HPLC system. The system was conditioned as follows: for parent drug peptides (including 12), a Kinetex 2.6 μm HILIC 100 Å, 100 mm×2.1 mm column (Phenomenex, Torrance, CA, USA), an isocratic mobile phase, and an acetonitrile:water:ammonium acetate buffer 50 mM (70:10:20, v/v/v) was used; and for the prodrug peptides (including 12P), a Luna (Phenomenex) 3 μm C8 100 Å, 100 mm×2.0 mm column and an isocratic mobile phase of ACN:water supplemented with 0.1% formic acid (70:30, v/v) and a flow rate of 0.2 mL/min at 25° C. was used. The limit of quantification for all of the peptides and prodrugs was 25 ng/mL.
The pharmacokinetic in-vivo study allows a further evaluation of the prodrug concept in the whole animal. The PK studies were performed in conscious Wistar male rats. An indwelling cannula was implanted in the jugular vein 24 hours before the PK experiment to allow full recovery of the animals from the surgical procedure. Animals (n=4) received either an IV bolus dose or oral dose of the investigated compound. Blood samples (with heparin, 15 U/ml) were collected at several time points for up to 6 hours post administration and was assayed by HPLC-MS method. Non-compartmental pharmacokinetic analysis was performed using WinNonlin software.

Series [2] can be described thus: Metabolic stability in rat plasma. It is filed as in vitro ADME. As to conditions: 37° C., up to 90 minutes. The method, then:
The enzymatic reactions were performed as follows: 2 mM stock solutions of the tested compounds were diluted with serum or purified brush border membrane vesicles (BBMVs) solution to a final concentration of 0.5 mM. During incubation at 37° C. samples were taken for a period of 90 minutes. The enzymatic reaction was stopped by adding 1:1 v/v of ice cold acetonitrile and centrifuge (4000 g, 10 min) before analysis. Preparation of BBMVs: The BBMVs was prepared from combined duodenum, jejunum, and upper ileum (male Wistar rats) by a Ca^++ precipitation method. Purification of the BBMVs was assayed using GGT, LAP and alkaline phosphatase as membrane enzyme markers
Peptides 12 and 12p were subjected to rat plasma and followed their degradation. Rat plasma is known to be rich with esterases.

Series [3] can be described thus: Caco-2 permeability study (Examples 1, 2 and 4, Table 3). It is filed as in vitro ADME, human. As to conditions: Caco-2, unit inferred; read-out: Caco-2 A-to-B Papp (converted). For orientation: Caco-2 cells form a polarised layer with tight junctions and transporters.
Experimental: The culture growth medium consisted of DMEM supplemented with 10% heat-inactivated FBS, 1% MEM-NEAA, 2 mM 1-glutamine, 1 mM sodium pyruvate, 50,000 units Penicillin G Sodium and 50 mg Streptomycin Sulfate (Biological Industries). The medium was replaced every other day.
Cells (passage 55-60) were seeded at density of 25×10^5 cells/cm^2 on untreated culture inserts of polycarbonate membrane with 0.4 μm pores and surface area of 1.1 cm^2. Culture inserts containing Caco-2 monolayer were placed in 12 mm transwell plates (Corning). Culture medium was replaced every other day. Transepithelial Electrical Resistance (TEER) values were measured by Millicell ERS-2 System (Millipore) a week after seeding up to experiment day (21-23 days) to ensure proliferation and differentiation of the cells. When the cells were fully differentiated and TEER values became stable (200-500 Ω·cm^2). The TEER values were compared to control inserts containing only the medium.
The experiment was initiated by replacing the medium from both sides by apical (600 μl) and basolateral (1500 μl) buffers, both warmed to 37° C. The Cells were incubated with the buffers solutions for 30 min at 37° C. on a shaker (100 cycles/min). The apical buffer was replaced by apical buffer containing 10 μg/ml of the cyclic peptides of the invention. 50 μl samples were taken from the apical side immediately at the beginning of the experiment, resulting in 550 μl apical volume during the experiment.
Permeability Coefficient (Papp) for each compound was calculated from the linear plot of drug accumulated versus time, using the following equation:
Where dq/dt is steady state appearance rate of the compound on the receiver side, Co is the initial concentration of the drug on the donor side, and A is the exposed tissue surface area (1.1 cm^2).
Transport studies were performed through the Caco-2 monolayer mounted in an Ussing-type chamber set-up with continuous trans-epithelial electrical resistance (TEER) measurements to assure TEER between 800 and 1200 Sr cm^2. HBSS supplemented with 10 mM MES and adjusted to pH 6.5 were used as transport medium in the donor compartment and pH 7.4 in the acceptor compartment. The donor solution contained the test compound.
Permeability mechanism of compounds is studied by evaluating the Papp of a compound from the apical to the basolateral (A-to-B) membrane and its Papp from the basolateral to the apical membrane (B-to-A). The A-to-B assay simulates passive and transporter-mediated permeability. The B-to-A assay is essential complementary experiment indicative of the activity of P-gp. The ratio of the A-to-B and B-to A Papps (efflux ratio) is calculated to determine the permeability mechanism.
The test system of a further series is CYP3A4. Briefly: Enzymatic inhibition study in isolated rat CYP3A4 microsomes. Format: in vitro ADME. As to conditions: rat, pooled rat CYP3A4 microsomes, pH 7.4; with ketoconazole; 60 min; read-out: concentration remaining after incubation, with ketoconazole.
The next series concerns rat CYP3A4 microsomes. The series is described as above. It is filed as in vitro ADME. As to conditions: 60 min.
Series [4] can be described thus: Pooled Human Liver Microsome assay. Format: in vitro ADME. From the text:
Peptide 12 P was subjected to additional in vitro assay to evaluate the involvement of liver metabolism using the Pooled Human Liver Microsome assay. Liver microsomes are subcellular particles derived from the endoplasmic reticulum of hepatic cells. These microsomes are a rich source of drug metabolizing enzymes, including cytochrome P-450. Microsome pools from various sources are useful in the study of xenobiotic metabolism and drug interactions. […] The presence of ketokonazole inhibits the metabolism by the liver enzymes in some degree. However, Incubating peptide 12P with self-assembling pro-nano lipospheres (PNL), led to much better inhibition of cytochromes P-450.

For series [5] the following is noted: in vivo; cited from earlier work.
A further series can be described thus: physchem. As to conditions: pH 7.4, LogD, pH 7.4, reported value (mean or bound).
The mark [6] stands for this setting: oral 5 mg/kg, peptide 12 measured in plasma, 12P given as dispersed 12P SNEDDS.

`CCCCCCOC(=O)N=C(NCCC[C@@H]1NC(=O)[C@@H](C)N(C)C(=O)[C@H](C)N(C)C(=O)[C@H](C)NC(=O)[C@H](CC(=O)OC)NC(=O)CNC1=O)NC(=O)OCCCCCC` [Peptide 12P, c(*aR(Hoc)2GD(OMe)A*A)]: in series [1] (after oral administration), the “relative bioavailability vs peptide 12” value is reported as “about 70 fold”. In series [1] (setting [6]), the AUC came out at 216.9 ± 75.6 µg·min/mL, the Cmax came to 1993 ± 967 ng/mL, the F was 43.8 ± 14.9% and the Kel came to 0.009 ± 0.0001 min⁻¹. For the same compound, the “Tmax, Median (range)” value in [1] (setting [6]) is 20 (20-60) min. Also, in series [2], the “metabolic stability in rat plasma, in words” value is given as “degraded”. Also, in series [3], the Papp A→B was 0.785 ×10⁻⁶ cm/s. Besides, the remaining at 1 h, 1 µM in the series on CYP3A4 came to 67 ± 3.61%. In addition, the “concentration remaining after incubation, alone” value with rat CYP3A4 microsomes (12P alone) was 14.0±4.06%. Further, the “concentration remaining after incubation, with SNEDDS” value with rat CYP3A4 microsomes (dispersed 12P SNEDDS) is listed as 102.2±19.7%. Besides, in series [4], the “metabolism by Pooled Human Liver Microsomes, in words” value was “substrate for P-gp efflux system and cytochromes P-450”.

On to `CC(C)[C@H]1C(=O)N[C@@H](CCCN=C(N)N)C(=O)NCC(=O)N[C@@H](CC(=O)O)C(=O)N[C@H](Cc2ccccc2)C(=O)N1C` [Cilengitide, cyclo(RGDf-(NMe)V)], for which the “permeability in the PAMPA-GIT model system” value is on record as “low permeability”. For the same compound, the “half live in man” value in series [5] is listed as 4 h. This compound also yielded a logD at 1 h in the series “physchem” of less than -1.

In the case of `CCCCCCOC(=O)N=C(NCCC[C@H]1NC(=O)[C@H](C(C)C)N(C)C(=O)[C@@H](C)N(C)C(=O)[C@@H](C)NC(=O)[C@@H](CC(=O)OC)NC(=O)CNC1=O)NC(=O)OCCCCCC` [#29P*] (cyclo(G[dD](OMe)[dA][dNMeA][NMeV][X1])), the “permeability in the PAMPA-GIT model system” value was more than -5. In addition, the “Papp (AB), replicate 1” value in the series on Caco-2 cells is on record as 0.1 10^−6 cm/s.
